Experimental data from patent publication US11767316B2, “Non-fused thiophene derivatives and their uses” (ENYO PHARMA, priority 2018, dated 2023).

What was measured:
UXF 1138 = experiment: Cytotoxicity, propidium iodide based monolayer assay, UXF 1138; format: cell-based; settings: 96 h; UXF 1138 (uterine sarcoma), four days of treatment, T/C=50%; read-out: Absolute IC50
Procedure: The cytotoxicity was tested for compounds of the invention on five different cell-lines, namely LXFL 1121, MAXF 401, MMXF L-636, PRXF PC-3M and UXF 1138 which are respectively lung large cell carcinoma, breast adeno carcinoma, multiple myeloma, prostate adeno carcinoma and uterine sarcoma.
A working stock solution of the test compounds was prepared in DMSO at a concentration of 33 mM or 8.25 mM, and small aliquots were stored at −20° C. On each day of an experiment, a frozen aliquot of the working stock solution was thawed and stored at room temperature prior to and during treatment.
All liquid handling steps were performed using the Tecan Freedom EVO 200 platform. First, serial 2-fold dilutions of the 33 mM DMSO working stock solution were done in DMSO. […]
A modified propidium iodide (PI) based monolayer assay was used to assess the anti-cancer activity of the compounds. Briefly, cells were harvested from exponential phase cultures, counted and plated in 96 well flat-bottom microtiter plates at a cell density of 4,000 to 40,000 cells/well dependent on the cell line's growth rate. […] After an incubation period of 1-2 hours at room temperature, fluorescence (FU) was measured using the Enspire Multimode Plate Reader (excitation λ=530 nm, emission λ=620 nm) to quantify the amount of attached viable cells. […]

[1] = target: T1, CISD2 Gene Product (NAF-1) (Homo sapiens, UniProt Q8N5K1); experiment: Stability of Fe-S cluster binding of purified NEET protein (absorbance 458 nm), NAF-1; format: biochemical
T1 sequence (Q8N5K1 57-135 limits assumed): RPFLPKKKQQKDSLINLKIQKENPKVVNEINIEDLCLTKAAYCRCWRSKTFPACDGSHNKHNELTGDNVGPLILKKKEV
Procedure: The modulator effect on the NEET proteins encoded by human CISD1, CISD2, and CISD3 genes by the compounds of the invention has been tested and is reported below. Particularly, the biochemical function of the NEET proteins is measured by the stability of Fe—S cluster binding of the purified NEET proteins.
The Fe—S cluster binding capacity of NEET proteins is known to be coordinated by four amino-acids in a stretch of 16 (three Cysteine and one Histidine). As the lability of the Fe—S cluster of NEET proteins is sensitive to the environment, cluster stability measurements are one of the measures of interactions of NEET proteins with small molecules and compounds. NEET protein/2Fe-2S cluster stability can be assessed by monitoring the decay in absorbance of its characteristic 458-nm peak (characteristic of the oxidized 2Fe-2S cluster) over time. Each NEET protein (mitoNEET, NAF-1 and Miner 2) was tested for its Fe—S binding in the absence or presence of a compound according to the invention (see table 3 below). […]
At pH 6, all the three NEET proteins (mitoNEET, NAF-1 and Miner 2) have a characteristic rate of loss of the bound Fe—S cluster that can be measured by the decrease of absorbance at wavelength 458 nm over time, using a spectrophotometer. […]
A reaction mix containing DMSO diluted in the Bis-Tris Buffer with or without a compound of the invention was prepared. […] The absorbance at wavelength 458 nm was taken at 5 minutes intervals at 37° C. with a spectrofluorimeter. […]
In addition to time monitoring, residual bound Fe—S cluster to NEET protein was measured at the final point of the spectrometry assay for each Test sample and compared to the Control sample data (in parenthesis table 3). This residual binding is measured by the differential percentage between the absorbance 458 nm at time zero and the absorbance 458 nm at the end of the experiment (i.e. respectively 500 or 180 minutes as described hereabove), showing the percentage of NEET protein still able to bind a Fe—S cluster. […]

Q: For `O=C(Nc1scc(C2CCc3ccccc3C2)c1C(=O)O)c1ccccc1` (stereo not shown) [#16], which IC50 (UXF 1138) is on record?
A: The IC50 was 324 nM.

Q: And the “Time (in minutes) to achieve 50% loss of bound cluster (Absorbance 458 nm)” value ([1]; NAF-1 20 μM, compound 60 μM, pH 6, 37° C., vehicle control 310)?
A: Its value is 35 (310) minutes.

Q: And the “Residual cluster bound at end of experiment (Percentage Absorbance 458 nm at time zero)” value ([1]; NAF-1, end of experiment 500 minutes, compound 60 μM, pH 6, vehicle control 3%)?
A: The value was 4% (3%).

Q: What about the “Stabiliser or destabiliser of NEET protein/Fe-S cluster binding” value ([1]; NAF-1, destabiliser = time to 50% cluster loss decreased by more than 25% vs control) of the same molecule?
A: The value was “destabilisers”.
